Source: US20060264388A1, “Method for treating liver cancer by intrahepatic administration of nemorubicin” (priority 2003, published 2006)

Tests used:
[1] = test system: patients with liver cancer; assay: Hematological toxicity - Neutrophils, worst CTC Grade by cycle, intrahepatic artery nemorubicin q8wk vs q6wk; assay type: in vivo, human
Method: (§1) The objective of the study was to shorten the time interval between treatment administrations from every 8 weeks (q8wk) of the protocol as reported in WO 00/15203 to every 6 weeks (q6wk). This was done in the attempt of improving the therapeutic potential of nemorubicin treatment through an increase of the dose intensity of the therapy, simultaneously safeguarding patient safety.
(§2) Overall, 13 patients were treated with the q8wk schedule (total 25 cycles administered; doses ranged from 200 to 800 mcg/m^2), and 11 patients were treated with the q6wk schedule (total 32 cycles administered; doses were 200 and 600 mcg/m^2).
The NCI-Common Tosicity Criteria grading system (CTC Grade), Version 2.0, was used to report toxicities.
A slight cumulative effect (i.e., increase in frequency but not in severity) was observed after repeated cycles for leucopenia and neutropenia (Tables 2 and 3), mainly with the q8wk schedule.

[2] = test system: human liver tumor; assay: Efficacy: tumor response, intrahepatic artery nemorubicin q8wk vs q6wk; assay type: in vivo
Method: as §1, §2

[3] = test system: tumor cells resistant to anthracyclines and presenting the mdr phenotype; details: cited from earlier work
[4] = test system: murine leukemias, solid murine and human tumor models; details: cited from earlier work
[5] = 200 mcg/m^2 q6wk, All cycles, 11 evaluable cycles
[6] = 200 mcg/m^2 q6wk, Cycle 1, 5 evaluable cycles
[7] = 200 mcg/m^2 q6wk, Cycles > 1, 6 evaluable cycles
[8] = 200 mcg/m^2 q8wk, All cycles, 5 evaluable cycles
[9] = 200 mcg/m^2 q8wk, Cycle 1, 3 evaluable cycles
[10] = 200 mcg/m^2 q8wk, Cycles > 1, 2 evaluable cycles
[11] = 400 mcg/m^2 q8wk, All cycles, 4 evaluable cycles
[12] = 400 mcg/m^2 q8wk, Cycle 1, 3 evaluable cycles
[13] = 600 mcg/m^2 q6wk, All cycles, 18 evaluable cycles
[14] = 600 mcg/m^2 q6wk, Cycle 1, 6 evaluable cycles
[15] = 600 mcg/m^2 q6wk, Cycles > 1, 12 evaluable cycles
[16] = 600 mcg/m^2 q8wk, All cycles, 8 evaluable cycles
[17] = 600 mcg/m^2 q8wk, Cycles > 1, 4 evaluable cycles
[18] = 800 mcg/m^2 q8wk, All cycles, 4 evaluable cycles
[19] = 800 mcg/m^2 q8wk, Cycle 1, 3 evaluable cycles

**Q.** What does the source list for `COc1cccc2c1C(=O)c1c(O)c3c(c(O)c1C2=O)C[C@@](O)(C(=O)CO)C[C@@H]3O[C@H]1C[C@H](N2CCO[C@H](OC)C2)[C@H](O)[C@H](C)O1.Cl` [nemorubicin, 3′desamino-3′[2(S)methoxy-4-morpholinyl]doxorubicin-hydrochloride]?
**A.** Neutrophils, worst CTC Grade by cycle: All Grades (%) [1, 5]: 4 (36%) (%); Neutrophils, worst CTC Grade by cycle: Grade 1-2 (%) [1, 5]: 4 (36%) (%); Neutrophils, worst CTC Grade by cycle: All Grades (%) [1, 6]: 2 (40%) (%); Neutrophils, worst CTC Grade by cycle: Grade 1-2 (%) [1, 6]: 2 (40%) (%); Neutrophils, worst CTC Grade by cycle: All Grades (%) [1, 7]: 2 (33%) (%); Neutrophils, worst CTC Grade by cycle: Grade 1-2 (%) [1, 7]: 2 (33%) (%); Neutrophils, worst CTC Grade by cycle: All Grades (%) [1, 8]: 3 (60%) (%); Neutrophils, worst CTC Grade by cycle: Grade 1-2 (%) [1, 8]: 3 (60%) (%); Neutrophils, worst CTC Grade by cycle: All Grades (%) [1, 9]: 1 (33%) (%); Neutrophils, worst CTC Grade by cycle: Grade 1-2 (%) [1, 9]: 1 (33%) (%); Neutrophils, worst CTC Grade by cycle: All Grades (%) [1, 10]: 2 (100%) (%); Neutrophils, worst CTC Grade by cycle: Grade 1-2 (%) [1, 10]: 2 (100%) (%); Neutrophils, worst CTC Grade by cycle: All Grades (%) [1, 11]: 1 (25%) (%); Neutrophils, worst CTC Grade by cycle: Grade 1-2 (%) [1, 11]: 1 (25%) (%); Neutrophils, worst CTC Grade by cycle: All Grades (%) [1, 12]: 1 (33%) (%); Neutrophils, worst CTC Grade by cycle: Grade 1-2 (%) [1, 12]: 1 (33%) (%); Neutrophils, worst CTC Grade by cycle: All Grades (%) [1, 13]: 3 (17%) (%); Neutrophils, worst CTC Grade by cycle: Grade 1-2 (%) [1, 13]: 3 (17%) (%); Neutrophils, worst CTC Grade by cycle: All Grades (%) [1, 14]: 1 (17%) (%); Neutrophils, worst CTC Grade by cycle: Grade 1-2 (%) [1, 14]: 1 (17%) (%); Neutrophils, worst CTC Grade by cycle: All Grades (%) [1, 15]: 2 (17%) (%); Neutrophils, worst CTC Grade by cycle: Grade 1-2 (%) [1, 15]: 2 (17%) (%); Neutrophils, worst CTC Grade by cycle: All Grades (%) [1, 16]: 2 (25%) (%); Neutrophils, worst CTC Grade by cycle: Grade 1-2 (%) [1, 16]: 2 (25%) (%); Neutrophils, worst CTC Grade by cycle: All Grades (%) [1, 17]: 2 (50%) (%); Neutrophils, worst CTC Grade by cycle: Grade 1-2 (%) [1, 17]: 2 (50%) (%); Neutrophils, worst CTC Grade by cycle: All Grades (%) [1, 18]: 1 (25%) (%); Neutrophils, worst CTC Grade by cycle: Grade 1-2 (%) [1, 18]: 1 (25%) (%); Neutrophils, worst CTC Grade by cycle: All Grades (%) [1, 19]: 1 (33%) (%); Neutrophils, worst CTC Grade by cycle: Grade 1-2 (%) [1, 19]: 1 (33%) (%); lesion area reduction versus baseline ([2]; 200 mcg/m^2 q6wk, one patient AJCC stage II (confirmed PR), CT scan 5 weeks after going off study): 70%; tumor shrinkage versus baseline ([2]; 200 mcg/m^2 q6wk, one patient AJCC stage II (confirmed PR), after 2 cycles): 64%; duration of PR in the original lesion (right lobe) ([2]; 200 mcg/m^2 q8wk, one patient AJCC stage II (unconfirmed PR)): ≥ 12 months; decrease in tumor area versus baseline ([2]; 200 mcg/m^2 q8wk, one patient AJCC stage II (unconfirmed PR), after 2 cycles): 85.9%; shrinkage of measurable lesion versus baseline ([2]; 200 mcg/m^2 q8wk, one patient AJCC stage III (confirmed PR), after 1 cycle): 78.45%; lesion area reduction versus baseline ([2]; 200 mcg/m^2 q8wk, one patient AJCC stage III (confirmed PR), second cycle): 95.3%; duration of PR ([2]; 600 mcg/m^2 q6wk, one patient AJCC stage III (confirmed PR), 5 cycles): ≥ 8 months; reduction of measurable lesion area versus baseline ([2]; 600 mcg/m^2 q6wk, one patient AJCC stage III (confirmed PR), cycle 3): 78.2%; reduction of the measurable lesion area ([2]; 600 mcg/m^2 q6wk, one patient AJCC stage III (confirmed PR), first treatment cycle): 48.4%; duration of PR in the original lesion (right lobe) ([2]; 600 mcg/m^2 q8wk, one patient stage III (unconfirmed PR)): about 3 months; decrease of lesion area versus baseline ([2]; 600 mcg/m^2 q8wk, one patient stage III (unconfirmed PR), after one cycle): 54.3%; decrease in tumor area versus baseline, perfused right lobe ([2]; 600 mcg/m^2 q8wk, one patient stage III (unconfirmed PR), cycle 2): 68.2%; decrease of the tumor area versus baseline ([2]; 800 mcg/m^2 q8wk, one patient AJCC stage III (unconfirmed PR), after 3 cycles): 52%; confirmed PR out of treated patients ([2]; q6wk schedule): two confirmed PR out of 11 treated patients; confirmed PR out of treated patients ([2]; q8wk schedule): one confirmed PR out of 13 treated patients; activity in vitro and in vivo [3]: active; antitumor activity ([4]; after i.p., i.v. or oral administration, murine leukemias, solid murine and human tumor models): good antitumor activity; effective oral doses, fold higher than the effective i.v. doses ([4]; animal tumor models, oral vs i.v.): 1.3-2 fold; optimal i.v. dose, fold less than that of doxorubicin ([4]; in vivo, i.v.): at least 80 fold
